{"source": "patent US10189881B2", "about": "“MPS peptides and use thereof” (The Regents of the University of California, priority 2013, dated 2019)", "key": {"[1]": {"test_system": "MARCKS phosphorylation (Ser159/163)", "test": "Western blot of MARCKS phosphorylation in peptide-treated cells", "assay_type": "cell-based, human", "details": "alanine-substituted peptide", "procedure": "The levels of MARCKS phosphorylation in chemoresistant cancer cell lines after 24 hours of MPS or mutant (Mut) peptide treatment. Lysates form 100 μM MPS-or Mut peptide-treated H1650 or H1975cells were subjected to immunoblotting. The sequences of MARCKS MPS peptide consisted of amino acids 152 to 176 from the wild-type protein (SEQ ID NO: 9). The sequences of mutated MPS peptide (Mut) (SEQ ID NO: 14) had the replacement of serine residues (S) by aspartate (D) and are unable to be recognized by PKC. The underline represents the PIP2 binding site.\nFIGS. 13A-13G show MPS peptide suppresses cancer cell proliferation and also induces apoptosis in these cells through direct downregulation of MARCKS activation. (A) Determination of MARCKS phosphorylation levels after 24 hours of MPS peptide treatment. Lysates from 1-100 μM MPS peptide-treated H1975 cells were subjected to western blot analysis. (B) Levels of PIP3 in drug resistant cancer cell lines after MPS peptide treatment. Cells were treated with 10, 50 or 100 μM MPS peptide. After 24 hours of treatment, PIP3 lipids were extracted from these cells and analyzed by a PIP3 ELISA kit. *P<0.05 compared with untreated cells. (C) Downregulation of AKT phosphorylation by MPS peptide treatment, but not by Mut peptide. Cells were treated with 100 μM MPS or Mut peptide for 24 hours. Lysates were immunoblotted with the indicated antibodies. (D) Cell viability analysis of six cancer cell lines and human bronchial epithelial cells (HBE1) upon MPS treatment. Cells were incubated with various concentrations of MPS peptide for 72 hours and then subjected to MTS assays. Polylysine served as a peptide control. n=4, *P<0.05 compared with untreated cells (Con). (E) Cells were treated with the indicated concentrations of MPS peptide and colonies were counted after 10 days of treatment using crystal violet staining (F) MPS treatment augments cell death. […] The percentages of apoptotic cells were quantified by flow cytometry (top), and presented as mean±SD of three experiments (bottom). *, P<0.05 versus untreated cells (Con). […]"}, "CL1-0 cells": {"test_system": "CL1-0 cells", "test": "NBD-labeled peptide binding to live cells (confocal microscopy)", "assay_type": "cell-based, human", "details": "NBD-labeled peptides; b53 versus D-Mut, b70 versus SEQ ID NO: 9", "description": "FIGS. 28A-28C show MPS peptide binding to live cells. (A) Peptide sequences showing substitution of serine residues in MPS peptide (SEQ ID NO: 9). The serine residues of MPS peptide were replaced either by adding 4 aspartic acids (SEQ ID NO: 14), which are negatively charged and result in making the final peptide less positive, or by adding 4 alanines (SEQ ID NO: 10), which increased membrane affinity. Both the MPS and alanines-substituted (A-Mut) MPS peptides are highly positive charged and interact electrostatically with PIP2 on the phospholipid membrane. In contrast, electrostatic interaction with cell membrane is decreased in aspartates-substituted (D-Mut) MPS peptide (Gambhir, A. et al. (2004) Biophys. J. 86:2188-2207; Rusu, L. et al. (2004) Biophys J. 87:1044-1053; Glaser, M. et al. (1996) J. Biol. Chem. 271:26187-26193; Ellena, J.F. et al. (2003) Biophys. J. 85:2442-2448; McLaughlin, S. et al. (2005) Nature 438:605-611). Figure discloses “MH” domain as SEQ ID NO: 42. […] MPS peptide, D-Mut, and A-Mut MPS peptide were labeled with NBD (4-Chloro-7-Nitrobenz-2-Oxa-1,3-Diazole) dye. After purification of peptides, CL1-0 cells were treated with various NBD-labeled peptides and then subjected to DAPI staining. The NBD-labeled peptide (green) and nucleus counter-stain (blue) were visualized via confocal laser-scanning microscopy. […]"}, "cancer cells": {"test_system": "cancer cells", "test": "Anti-cancer activity of alanine-substituted MPS (method not given)"}}, "data": [{"sequence": "KKKKKRFAFKKAFKLAGFAFKKNKK [SEQ ID NO: 10, alanines-substituted MPS peptide]", "values": [{"measurement": "Phospho-MARCKS levels in cancer cells", "setting": "[1]", "result": "reduce phospho-MARCKS levels"}, {"measurement": "Peptide-cell interaction", "setting": "CL1-0 cells", "result": "greater peptide-cell interaction"}, {"measurement": "Anti-cancer activity compared to MPS peptide of SEQ ID NO: 9", "setting": "cancer cells", "result": "better anti-cancer activity"}]}]}
